Results on 16 molecules are retold here after US20040138301A1, “Chemical uncouplers for the treatment of obesity” (priority 2002, published 2004).

SMILES strings stand for the structures.

The test system of one data set is FSK-4 cells. The experiment in a line: Assay (IV): Glucose utilisation in FSK-4 cells. Type of data set: cell-based. The note with it: FSK-4 cells; for EC50: glucose utilisation, 24 hours incubation, read-out: FSK4 EC50; for Emax: maximal efficacy relative to FCCP, read-out: FSK4 Emax (% of FCCP). The method, then:
Assay (IV): Glucose Utilisation in FSK-4 Cells
The assay measures indirectly the activity of the respiratory chain in FSK-4 cells by using D-(6-^3H(N))-glucose. The ^3H-proton will first be released in the TCA cyclus and transported to the respiratory chain where it will be incorporated into water. The water is thereafter separated from the D-(6-^3H(N))-glucose by evaporation. Finally, the radioactivity in the water is determined using a Topcounter.
FSK-4 cells obtained from ATCC (Maryland, USA), are cultured in growth medium (McCoy's medium with the following addition 100 units/ml penicillin and streptomycin and 10% FCS (fetal calf serum)) at 37° C. and 5% CO2. All media are obtained by Gibco (Life Technologies, Maryland, USA) where not otherwise mentioned.
At day zero the cells are harvested using trypsin-EDTA and washed in assay medium (MEM medium with the following addition 1× non-essential amino acids (M7145, 2 mM glutamin, 100 units/ml pencillin and streptomycin, 0.0075% sodium bicarbonate, 1 mM sodium pyrovate and 2% horse serum) using centrifugation. The cells are plated into single StripPlates wells (Corning B.V.Life Sciences, The Netherlands) that are placed into 24-well plates (Corning B.V.Life Sciences, The Netherlands) with a concentration of 1,5×10^4 cells/100 μl assay medium/well. The cells are then incubated at 37° C. and 5% CO2 overnight.
(§1) The next day the compounds to be tested are diluted to different concentrations in DMSO (Sigma, Missouri, USA) to 100 times final concentration. They are then diluted to a final concentration in assay medium containing 10 μCi/ml D-(6-^3H(N))-glucose (PerkinElmer Life Sciences Inc., Boston, USA). The medium is removed from the cells and 200 μl of the compound dilutions are added in duplicates. The cells are then incubated for another 24 hours at 37° C. and 5% CO2. Finally the cells are lysed by adding 50 μl 10% TCA (tri-chloroacetatic acid). 300 μl of sterile water is then added to the 24-wells that surrounds the StripPlate wells. The plate is sealed with Top-seal-tape (Packard, PerkinElmer Life Sciences Inc., Boston, USA) and the plate is incubated in a heating cupboard at 50° C. to equilibrium the radioactive water formed in the respiratory chain into the water in the 24-well plate by evaporate. The plates incubate for 8 hours where the heating cupboard is turned off. The top seal is removed when the samples have reached room temperature. One ml scintillation liquid (Packard Microscient, PerkinElmer Life Sciences Inc., Boston, USA) is added to all the samples and the radioactivity is determined using a Topcounter (Packard, PerkinElmer Life Sciences Inc., Boston, USA). Non-specific activity is determined by evaporating 200 μl of the dilution medium containing the D-(6-^3H(N))-glucose into 300 μl sterile water, and total radioactivity is determined by counting 5 μl assay medium with 10 μCi/ml D-(6-^3H(N))-glucose.
All calculations are done using GraphPad Prism 3.0 (GraphPad software, Inc.) From concentration-response curves the half maximal concentration (EC50) and maximal efficacy (Emax) are calculated using equation 1.
Y=Bottom+(Top−Bottom)/(1+10^((LogEc50-X)*slope))
(§2) X is the logarithm of the molar concentration of the test compound.
Y is the degree of stimulation caused by the compound measured as percentage of the basal stimulation.
The calculated EC50 value is then used to determine the concentrations used in a study where the Hill slope is calculated.
From the double logarithmic plot of the increase in glucose utilisation and the compound concentration the Hill slope is calculated accordingly to equation 2.
It is presumed, that the maximal increase in the glucose utilisation (as measured in the FSK-4 glucose utilisation assay) is limited by the capacity of the metabolism.

The next data set concerns HEP-G2 cells. In words: cells. The note with it: for EC50 / Emax / EC (Emax): Homo sapiens; for EC50: HepG2, 3 h, read-out: HEP-G2 EC50, HEP-G2 cells, glucose utilisation, 3 hours incubation; for Emax: HepG2, read-out: HEP-G2 Emax (% of FCCP), HEP-G2 cells, maximal stimulation relative to FCCP; for EC (Emax): HepG2, read-out: HEP-G2 Emax (μM), HEP-G2 cells, concentration at which Emax is achieved (CEmax). The method, then: Assay (I): Glucose utilisation in a human hepatocytes cell line (HEP-G2 cells)
The assay measures indirectly the activity of the respiratory chain in HEP-G2 cells by using D-(3-^3H(N))-glucose. The ^3H-proton will first be released during the metabolism of glucose where it will be incorporated into water. The water is thereafter separated from the D-(3-^3H(N))-glucose by evaporation. Finally, the radioactivity in the water is determined using a Topcounter.
HEP-G2 cells obtained from ATCC (Maryland, USA), are cultured in assay medium (MEM medium) with the following addition 1× non-essential amino acids (M7145, 2 mM glutamine, 100 units/ml penicillin and streptomycin, 0.0075% sodium bicarbonate, 1 mM sodium pyrovate and 0.5% BSA (Bovin Serum Albumin, Sigma Missouri, USA)) at 37° C. and 5% CO2. All media are obtained by Gibco (Life Technologies, Maryland, USA) where not otherwise mentioned.
At day zero the cells are harvested using trypsin-EDTA and washed in assay medium using centrifugation. […] The cells are then incubated at 37° C. and 5% CO2 overnight.
as §1, with “diluted” for “diluted to different concentrations”, “μCi/ml D-(3-^3H(N))-glucose” for “μCi/ml D-(6-^3H(N))-glucose”, “another 3” for “another 24”, “TCA (trichloroacetic” for “TCA (tri-chloroacetatic”, “the D-(3-^3H(N))-glucose” for “the D-(6-^3H(N))-glucose”, “μCi/ml D-(3-^3H(N))-glucose.” for “μCi/ml D-(6-^3H(N))-glucose.”
The cpm (counts per minute) representing the non-specific radioactivity in the D-(3-^3H(N))-glucose is subtracted from all incubated values. Then mean basal value (samples without any compound added) is subtracted from the values of all stimulated samples (samples added different concentrations of the different test compounds). All these calculations are done using GraphPad Prism 3.0 (GraphPad software, Inc.). The maximal stimulation caused by the test compounds is calculated in percentage of maximal stimulation caused by either DNP or FCCP.
When calculating the concentration-response curve the maximal glucose utilisation stimulated by FCCP or DNP (subtracted non-specific and basal values) is converted to 100% and all the other values are expressed in percentage of this value. Using these percentage values and the compound concentration a concentration-response curve is calculated using sigmoidal dose-response (variable slope) equation (all the calculations are done by GraphPad Prism 3.0 (GraphPad software, Inc.));
Y=Bottom+(Top−Bottom)/(1+10^((LogEC50-X)*slope))
as §2
Y is the degree of stimulation caused by the compound measured as a percentage of the maximal stimulation achieved by use of FCCP or DNP.
The results achieved with these concentrations are used to determine the slope in this area using the following equation: […]

For `Cc1c(Cl)cc(C(C)(C)C)c(O)c1C(=O)Nc1ccc([N+](=O)[O-])cc1Cl` [Example 5, 3-Tert-Butyl-5-Chloro-N-(2-Chloro-4-Nitrophenyl)-2-Hydroxy-6-Methyl-Benzamide], in the data set on FSK-4 cells, the 50% effective concentration (EC50) was determined as 100 nM and the Emax was determined as 100%. Further, in the data set with HEP-G2 cells, the concentration for a half-maximal effect (EC50) was found to be 60 nM, the Emax turned out to be 95% and the EC (Emax) stood at 0.3 µM.
Take `Cc1ccc(C(C)(C)C)c(O)c1C(=O)Nc1ccc([N+](=O)[O-])cc1Cl` [Example 10]: in the data set with FSK-4 cells, the EC50 was found to be 300 nM and the Emax was 80%. In the data set with HEP-G2 cells, the EC50 was 370 nM, the Emax came out at 100% and the EC (Emax) was 3 µM.
On to `CC(C)(C)c1cc(C[P+](c2ccccc2)(c2ccccc2)c2ccccc2)cc(C(C)(C)C)c1O` [Example 11, (3,5-Di-Tert-Butyl-4-Hydroxybenzyl)Triphenylphosphonium Bromide], for which, in the data set on FSK-4 cells, the EC50 worked out at 300 nM and the Emax turned out to be 90%. Further, in the data set on HEP-G2 cells, the EC50 turned out to be 700 nM, the Emax is 75% and the EC (Emax) stood at 3 µM. Moreover, the “HEP-G2 Tox” value in the data set on HEP-G2 cells (human, 3 h) is listed as “Tox 0.03 mM”.
For the molecule `CC(C)(C)c1cc(/C=C(\C#N)S(=O)(=O)c2ccc(F)cc2)cc(C(C)(C)C)c1O` [Example 86, (E)-3-(3,5-Di-Tert-Butyl-4-Hydroxy-Phenyl)-2-(4-Fluoro-Benzenesulfonyl)-Acrylonitrile], the concentration giving a half-maximal response (EC50) in the data set with FSK-4 cells came out at 1000 nM.
Regarding `CC(C)(C)c1cc(/C=C(\C#N)S(=O)(=O)c2ccccc2)cc(C(C)(C)C)c1O` [Example 87, (E)-2-Benzenesulfonyl-3-(3,5-Di-Tert-Butyl-4-Hydroxy-Phenyl)-Acrylonitrile], the EC50 in the data set on FSK-4 cells is 700 nM.
For the molecule `CC(C)S(=O)(=O)/C(C#N)=C/c1cc(C(C)(C)C)c(O)c(C(C)(C)C)c1` [Example 88, (E)-3-(3,5-Di-Tert-Butyl-4-Hydroxy-Phenyl)-2-(Propane-2-Sulfonyl)-Acrylonitrile], in the data set with FSK-4 cells, the EC50 worked out at 500 nM.
For the molecule `CC(C)(C)c1cc(/C=C(\C#N)S(=O)(=O)c2cc(Cl)ccc2Cl)cc(C(C)(C)C)c1O` [Example 89, 3-(3,5-Di-Tert-Butyl-4-Hydroxy-Phenyl)-2-(2,5-Dichloro-Benzenesulfonyl)-Acrylonitrile], the EC50 in the data set on FSK-4 cells stood at 500 nM.
For the molecule `CC(C)(C)c1cc(/C=C(\C#N)S(=O)(=O)c2ccc(Cl)cc2Cl)cc(C(C)(C)C)c1O` [Example 90, 3-(3,5-Di-Tert-Butyl-4-Hydroxy-Phenyl)-2-(2,4-Dichloro-Benzenesulfonyl)-Acrylonitrile], the 50% effective concentration (EC50) with FSK-4 cells worked out at 600 nM.
As for `CCCCCCS(=O)(=O)/C(C#N)=C/c1cc(C(C)(C)C)c(O)c(C(C)(C)C)c1` [Example 91, 3-(3,5-Di-Tert-Butyl-4-Hydroxy-Phenyl)-2-(Hexane-1-Sulfonyl)-Acrylonitrile], the 50% effective concentration (EC50) with FSK-4 cells was 3800 nM.
Take `CC(C)(C)c1cc(/C=C(\C#N)S(=O)(=O)c2ccc(Br)cc2)cc(C(C)(C)C)c1O` [Example 92, 2-(4-Bromo-Benzenesulfonyl)-3-(3,5-Di-Tert-Butyl-4-Hydroxy-Phenyl)-Acrylonitrile]: the concentration giving a half-maximal response (EC50) with FSK-4 cells was 1000 nM.
In the case of `CC(C)(C)c1cc(/C=C(\C#N)S(=O)(=O)c2cccc(Br)c2)cc(C(C)(C)C)c1O` [Example 93, 2-(3-Bromo-Benzenesulfonyl)-3-(3,5-Di-Tert-Butyl-4-Hydroxy-Phenyl)-Acrylonitrile], in the data set with FSK-4 cells, the EC50 came to 100 nM.
Regarding `CC(C)(C)c1cc(Br)cc(C(=O)Nc2ccc(C#N)cc2Cl)c1O` [Example 94, 5-Bromo-3-Tert-Butyl-N-(2-Chloro-4-Cyanophenyl)-2-Hydroxybenzamide], in the data set on FSK-4 cells, the concentration for a half-maximal effect (EC50) turned out to be 100 nM and the maximal response (Emax) was determined as 90%.
On the same counts, the results for `Cc1c(Br)cc(C(C)(C)C)c(O)c1C(=O)Nc1ccccc1C(F)(F)F` [Example 96, 3-Bromo-5-Tert-Butyl-6-Hydroxy-2-Methyl-N-(2-Trifluoromethylphenyl)Benzamide] are 20000 nM and 40%.
On the same counts, the results for `N#CC(C#N)=Cc1c(Br)[nH]c2ccccc12` [Example 97, 2-(2-Bromo-1H-Indol-3-Ylmethylene)Malononitrile] are 1500 nM and 55%.
For `Cc1[nH]c2c(Br)cccc2c1C=C(C#N)C#N` [Example 98, 2-(7-Bromo-2-Methyl-1H-Indol-3-Ylmethylene)Malononitrile], in that order: 6600 nM and 105%.
As for `Cc1[nH]c2ccc(Br)cc2c1C=C(C#N)C#N` [Example 99, 2-(5-Bromo-2-Methyl-1H-Indol-3-Ylmethylene)Malononitrile], in the data set on FSK-4 cells, the concentration giving a half-maximal response (EC50) amounted to 1700 nM and the Emax amounted to 40%.

As usually defined, the EC50 is the concentration that produces a half-maximal response. The term Emax denotes the greatest response seen or fitted, relative to the assay's reference.
